Measured values as given in patent publication US10590064B2, “Crystals of alanine N-acetic acid precursors, process to prepare them and their use” (NOURYON CHEMICALS INTERNATIONAL B.V., priority 2014, dated 2020).

Assays:
Format in all cases: physicochemical
[1] = pH of 1 wt % in water
Procedure: Additionally the pH was measured as 1 wt % D,L-alanine diacetonitrile in water and this pH was compared to the pH of 1 wt % […].

[2] = Stability (hydrolysis) of D,L-alanine diacetonitrile in water, aqueous layers analyzed by NMR; conditions: demi-water, closed bottles, overnight at various temperatures
Procedure: (§1) The solubility of D,L-alanine diacetonitrile was determined at various temperatures to get a clear understanding of the solubility and stability of D,L-alanine diacetonitrile. The D,L-alanine diacetonitrile crystals obtained in Example 1 were added to demi-water and the samples in well-closed bottles were placed in ovens/refrigerators at various temperatures overnight.

[3] = Solubility of D,L-alanine diacetonitrile crystals in demi-water at various temperatures; conditions: overnight
Procedure: as §1

Compound	pH (1% in water) [1]	Hydrolysis of D,L-alanine diacetonitrile in aqueous layer (NMR) [2]	Solubility, wt % D,L-alanine diacetonitrile ([3]; 0° C.) [wt %]	Solubility, wt % D,L-alanine diacetonitrile ([3]; 5° C.) [wt %]	Solubility, wt % D,L-alanine diacetonitrile ([3]; 20° C.) [wt %]	Solubility, wt % D,L-alanine diacetonitrile ([3]; 30° C.) [wt %]	Solubility, wt % D,L-alanine diacetonitrile ([3]; 40° C.) [wt %]	Solubility, wt % D,L-alanine diacetonitrile ([3]; 50° C.) [wt %]
CC(C(=O)[O-])N(CC#N)CC#N.[Na+] (racemic) [D,L-alanine diacetonitrile-Na, sodium salt of D,L-alanine diacetonitrile]	pH = 3.3.							
D,L-alanine diacetonitrile	pH = 2.2	no or very little hydrolysis took place	6	7.9	40.7	75	82.5	95
